The record followed here is ChEMBL document CHEMBL1158343, “Synthesis, antimicrobial and antiviral evaluation of substituted imidazole derivatives” (Eur J Med Chem, 2009).

The test system of the test is Vaccinia virus. Briefly: Antiviral activity against Vaccinia virus infected in human HEL cells assessed as reduction in virus-induced cytopathogenicity after 3 days. The test is classed as functional, organism-based. To be noted: Orthopoxvirus vaccinia, 72 h.

SMILES strings stand for the structures. ≈ marks a conversion by molar mass, not a printed value.

Turning to `O=C(c1ccc([N+](=O)[O-])cc1)n1ccnc1-c1ccccc1[N+](=O)[O-]`, the 50% effective concentration (EC50) is over 100 µg/mL.
As for `O=C(c1ccccc1Br)n1ccnc1-c1ccccc1[N+](=O)[O-]`, the figure is over 100 µg/mL; as for `O=C(c1ccccc1Br)n1ccnc1-c1ccc([N+](=O)[O-])cc1`, over 100 µg/mL; as for `O=C(O)c1ccccc1-c1nccn1C(=O)c1ccc([N+](=O)[O-])cc1`, over 100 µg/mL.
On to `O=C(c1ccc([N+](=O)[O-])cc1)n1ccnc1-c1ccc([N+](=O)[O-])cc1`, for which the EC50 worked out at 4 µg/mL (≈ 11.8 µM).
As to `O=C(c1ccc([N+](=O)[O-])cc1)n1ccnc1-c1ccc(Cl)cc1`, the EC50 worked out at 2 µg/mL (≈ 6.1 µM).
As for `O=C(c1ccc([N+](=O)[O-])cc1)n1ccnc1-c1ccccc1Cl`, the figure is over 100 µg/mL; as for `COc1ccc(-c2nccn2C(=O)c2ccc([N+](=O)[O-])cc2)cc1`, over 100 µg/mL; as for `O=C(c1ccccc1Br)n1ccnc1-c1ccccc1Cl`, over 100 µg/mL.
As for `O=C(c1ccc([N+](=O)[O-])cc1)n1ccnc1-c1cccc(Cl)c1`, the figure is 45 µg/mL (≈ 137 µM); as for `O=C(c1ccccc1Br)n1ccnc1-c1cccc([N+](=O)[O-])c1`, over 100 µg/mL.
As for `COc1ccc(-c2nccn2C(=O)c2ccccc2Br)cc1`, the figure is over 100 µg/mL.
In the case of `O=C(c1ccc([N+](=O)[O-])cc1)n1ccnc1-c1cccc([N+](=O)[O-])c1`, the EC50 was over 100 µg/mL.
`O=C(c1ccccc1Br)n1ccnc1-c1ccc(Cl)cc1`: the EC50 is over 100 µg/mL.
Next, `O=c1[nH]c(=O)n([C@H]2C[C@H](O)[C@@H](CO)O2)cc1/C=C/Br` [BRIVUDINE]: 5 µg/mL (≈ 15 µM).
Turning to `Nc1ccn(C[C@@H](CO)OCP(=O)(O)O)c(=O)n1.O.O` [CIDOFOVIR], the half-maximal effective concentration (EC50) turned out to be 7 µg/mL.
As for `Nc1nc2c(ncn2COC(CO)CO)c(=O)[nH]1` [GANCICLOVIR], the figure is over 100 µg/mL; as for `NC(=O)c1ncn([C@@H]2O[C@H](CO)[C@@H](O)[C@H]2O)n1` [RIBAVIRIN], over 250 µg/mL.

As a reminder, the EC50 is the concentration giving half of the maximal effect.
